Assay results from PubChem BioAssay (NCI).
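Following 48 hours of exposure in 96-well plates, responses at five concentrations were used to interpolate endpoints linearly. TGI is the concentration that stops growth completely.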

Experiments:
Assay in all cases: NCI tumour cell line growth inhibition, 48 h
A498 renal = tested on: A498 renal
A549 NSCLC = tested on: A549 NSCLC
CAKI-1 renal = tested on: CAKI-1 renal
CCRF-CEM leukemia = tested on: CCRF-CEM leukemia
COLO 205 colon = tested on: COLO 205 colon
DLD-1 colon = tested on: DLD-1 colon
DMS 114 small cell lung = tested on: DMS 114 small cell lung
DMS 273 small cell lung = tested on: DMS 273 small cell lung
EKVX NSCLC = tested on: EKVX NSCLC
HCC-2998 colon = tested on: HCC-2998 colon
HCT-116 colon = tested on: HCT-116 colon
HCT-15 colon = tested on: HCT-15 colon
HL-60(TB) leukemia = tested on: HL-60(TB) leukemia
HOP-18 NSCLC = tested on: HOP-18 NSCLC
HOP-62 NSCLC = tested on: HOP-62 NSCLC
HOP-92 NSCLC = tested on: HOP-92 NSCLC
HT29 colon = tested on: HT29 colon
IGROV1 ovarian = tested on: IGROV1 ovarian
K-562 leukemia = tested on: K-562 leukemia
KM12 colon = tested on: KM12 colon
KM20L2 colon = tested on: KM20L2 colon
LOX IMVI melanoma = tested on: LOX IMVI melanoma
M19-MEL melanoma = tested on: M19-MEL melanoma
MALME-3M melanoma = tested on: MALME-3M melanoma
MCF7 breast = tested on: MCF7 breast
MOLT-4 leukemia = tested on: MOLT-4 leukemia
NCI-H226 lung = tested on: NCI-H226 lung
NCI-H23 lung = tested on: NCI-H23 lung
NCI-H460 lung = tested on: NCI-H460 lung
NCI-H522 lung = tested on: NCI-H522 lung
NCI/ADR-RES ovarian = tested on: NCI/ADR-RES ovarian
OVCAR-3 ovarian = tested on: OVCAR-3 ovarian
OVCAR-4 ovarian = tested on: OVCAR-4 ovarian
OVCAR-5 ovarian = tested on: OVCAR-5 ovarian
OVCAR-8 ovarian = tested on: OVCAR-8 ovarian
P388 leukemia = tested on: P388 leukemia
P388/ADR leukemia = tested on: P388/ADR leukemia
RPMI-8226 leukemia = tested on: RPMI-8226 leukemia
RXF 393 renal = tested on: RXF 393 renal
SF-268 CNS = tested on: SF-268 CNS
SF-295 CNS = tested on: SF-295 CNS
SF-539 CNS = tested on: SF-539 CNS
SK-MEL-2 melanoma = tested on: SK-MEL-2 melanoma
SK-MEL-5 melanoma = tested on: SK-MEL-5 melanoma
SK-OV-3 ovarian = tested on: SK-OV-3 ovarian
SN12C renal = tested on: SN12C renal
SN12K1 renal = tested on: SN12K1 renal
SNB-19 CNS = tested on: SNB-19 CNS
SNB-75 CNS = tested on: SNB-75 CNS
SNB-78 CNS = tested on: SNB-78 CNS
SW-620 colon = tested on: SW-620 colon
U251 CNS = tested on: U251 CNS
UACC-257 melanoma = tested on: UACC-257 melanoma
UACC-62 melanoma = tested on: UACC-62 melanoma
UO-31 renal = tested on: UO-31 renal
XF 498 CNS = tested on: XF 498 CNS
SK-MEL-28 melanoma = tested on: SK-MEL-28 melanoma

Measured: TGI

CC(=O)OCC1OC(n2cc(F)c(=O)[nH]c2=O)C(N)C(OC(C)=O)C1OC(C)=O (configuration not stated)
not listed: SK-MEL-28 melanoma
> 100 µM: all other assays above

O=C(NCCCCCCNC(=O)n1cc(F)c(=O)[nH]c1=O)NCCCOCCOCCCNC(=O)C(O)C(O)C(O)C(O)CO (configuration not stated)
not listed: CAKI-1 renal
> 2.5 µM: all other assays above
